Assay [1] concerns U937 acute myeloid leukemia cells. Briefly: Viable cell detection with Resazurin, U937 cells. The assay is classed as cell-based. The conditions noted are these: incubated one day, FIG. 4. As to the method: (§1) U937 acute myeloid leukemia cells and PC3 prostate cancer cells were each grown in 10% FCS+RPMI medium and quadruplicates were inoculated into a 96 well plate, 20,000 cells/well.
(§2) KTPAF50 was incubated with the cells for one day, and viable cells were detected using Resazurin (R&D System) and a spectrophotometer.
In order to determine whether the entire KTPAF50 peptide is required for activity, the experiment described in Example III above, using U937 cells, was repeated with the complete KTPAF50 peptide and fragments thereof.

For assay [2], the system named is human peripheral white blood cells (pWBC). The experiment in a line: Cytokine secretion from PHA-cultured human peripheral white blood cells treated with KTPAF50 (ELISA). Format: cell-based. The settings on record: pWBC in PHA containing medium, treated for 3 days. As to the method: In order to determine the potential effect of KTPAF50 on various diseases, KTPAF50 was incubated with human peripheral white blood cells (pWBC), and the amounts of a panel of cytokines were measured.
Total human white blood cells were cultured in PHA containing medium (Biological Industries INC—catalogue number—01-201-1) (2 million cells/well in 2 ml medium). The control cells were not treated.
At day 3 medium was harvested and subjected to ELISA analysis, using e-Bioscience kits for human IL-17 (catalogue number: 88-7176), human INF-γ (catalogue number: 88-7316) and human TNF-α (catalogue number: 88-7346. The results are summarized in FIGS. 1, 2 and 3.
On the technique in general: ELISA stands for enzyme-linked immunosorbent assay.

In assay [3] the test system is PC3 prostate cancer cells. Briefly: Viable cell detection with Resazurin, PC3 cells. The assay is classed as cell-based. The settings on record: incubated one day, FIG. 4. The method, then: as §1, §2
Background: Alamar Blue is a resazurin reagent that responds to reducing activity.

A further assay concerns U937 cells. Briefly: U937 tumor growth in athymic nude mice. The conditions noted are these: nude mice inoculated s.c. with 15×10^6 U937 cells, 25 ug/mouse injected from day 9, versus saline control; FIG. 6. Format: in vivo. As to the method:
14 athymic nude female 8-9 week-old mice were purchased from Harlan Biotech, Israel. The mice were inoculated s.c. with 15×10^6 U937 cells. Tumors began to grow, and at day 9 the mice were divided into 2 groups: • A control group which was injected with saline. • A treated group which was injected with KTPAF50 (25 ug/mouse)
At day 20, 4 mice from the control group were sacrificed due to ethical reasons because they had huge tumors.

From patent US8329861B2, “Protein KTPAF50” (Two To Biotech Ltd., priority 2007, dated 2012) come the findings set out here.

With “KTPAF50: KTPAF50 peptide devoid of the signal sequence, 50 amino acids: LRRREQAERGSRRCAIAGEERAMLSPSPLPETPFSPEKGAAFSPIYPRRK; chemically synthesized by Anaspec (listed as Homo sapiens)”, the “viable cells (normalized to the control amount)” value in assay [1] and in assay [3] was “significant decrease in viable cells” throughout. Moreover, the “secretion of IL-17” value in assay [2] (FIG. 1) is “stimulated the pWBC to secrete all three cytokines measured”. The “secretion of INF-γ” value in assay [2] (FIG. 2) was “stimulated the pWBC to secrete all three cytokines measured”. Moreover, the “secretion of TNF-α” value in assay [2] (FIG. 3) was “stimulated the pWBC to secrete all three cytokines measured”. Moreover, the “U937 tumor volume / tumor growth” value with U937 cells is “totally prevented tumor growth”.
